Laboratory results published in patent US20250099490A1, “25-HYDROXYVITAMIN D AS A FEED ADDITIVE FOR AQUATIC ANIMALS” (DSM IP Assets B.V., priority 2022, published 2025).
Entries after “also recorded” stand apart in the source; their conditions may differ.

What was measured:
Type in all cases: in vivo
[1] = Study 1: rainbow trout 91-day feeding trial, vitamin D3 metabolites in plasma and muscle
Experimental: (§1) The first study evaluated dietary 25-hydroxyvitamin D3 (25-OH D3) compared to control basal diet fed fish. Fish with a mean starting weight of 58 g were fed diets based on the same standard composition representative of typical commercial salmonid feeds.
(§2) Test diets contained no supplemented 25-OH-D3 or either 80, 800 or 8000 μg/kg supplemented 25-OH-D3 (as fed basis). Hy·D (25-OH-D3) was supplemented on top of diets already containing cholecalciferol (D3) from both endogenous and supplemented sources. The measured levels of D3 in all experimental diets were in excess of established minimum dietary requirements for D3, (National Research Council (NRC), Nutrient Requirements of Fish and Shrimp. 2011, Washington, DC: The National Academies Press. 392.). In addition, the dietary level of D3 in all experimental diets met recommendations for optimal vitamin D3 in salmonid diets (Fish Nutrition. Fourth Edition 2021. Edited by Ronald W. Hardy and Sadasivam J. Kaushik. Academic Press, UK. 905 pp.), which stipulates a vitamin D3 supplementation of 2500-3500 international units (IU)/62.5-87.5 μg/kg). Diets were fed for 91 days following which, test fish reached a mean final weight of 332 g. Forty fish were housed in each tank and each treatment consisted of four replicate tanks.

[2] = Rainbow trout 20-week feeding from first-feeding, feed efficiency and whole body composition; conditions: 80 μg/Kg 25-OH-D3 plus D3, 20 weeks
Experimental: The first study evaluated standard dietary levels of supplemented vitamin D3 alone or in combination with 80 μg/Kg 25-hydroxy vitamin D3dietary 25-hydroxyvitamin D3 (25-OH D3) in rainbow trout fed for 20 weeks from first-feeding.
Two commercial-like experimental diets were formulated by DSM Nutritional Products France and produced by SPAROS (Portugal). The basal diet was supplemented with either vitamin D3 only (VitD3 diet) or D3 in combination with 80 μg/Kg 25-hydroxy vitamin D3 (25-OH-D3 diet) (Table 1).
The parameters for growth performance, including feed efficiency (FE), were measured every 3 weeks and calculated as follow: Feed efficiency (FE)=(the mass for dead fish+final wet body mass-initial wet body mass)/dry feed intake. […].
Data are presented as means±standard deviation (SD). For growth parameters, the plasma and the qPCR results, data were analyzed by t-Student comparison of two means. Normality was assessed using the Shaprio-Wilk test, while homoscedasticity was determined using Levene's test. Data was analysed using the statistical R software/R Commander package. For all statistical analyses, the level of significance was set at P<0.05. […] Differentially expressed genes (DEG) are determined and hierarchical clustering is illustrated by a heatmap. […]

[3] = Study 1: rainbow trout 91-day feeding trial, growth performance (SGR) and feed conversion (FCR); conditions: rainbow trout, 80, 800 or 8000 μg/kg 25-OH-D3 in feed, 91 days
Experimental: as §1, §2

[4] = Study 2: Atlantic salmon 90-day feeding trial, final body weight, FCR and PER; conditions: Atlantic salmon, 100, 200 or 400 μg/kg 25-OH-D3 in feed, 90 days, relative to control
Experimental: (§3) The second study evaluated dietary 25-hydroxyvitamin D3 (25-OH D3) compared to control basal diet fed fish.
(§4) Fish with a mean starting weight of 23.4 g were fed diets based on the same standard composition representative of typical commercial salmonid feeds. Test diets contained no supplemented 25-OH-D3 or either 100, 200 or 400 μg/kg supplemented 25-OH-D3 (as fed basis). Hy·D (25-OH-D3) was supplemented on top of diets already containing cholecalciferol (D3) from both endogenous and supplemented sources. The measured levels of D3 in all experimental diets were in excess of established minimum dietary requirements for D3, (National Research Council (NRC), Nutrient Requirements of Fish and Shrimp. 2011, Washington, DC: The National Academies Press. 392.). In addition, the dietary level of D3 in all experimental diets met recommendations for optimal vitamin D3 in salmonid diets (Fish Nutrition. Fourth Edition 2021. Edited by Ronald W. Hardy and Sadasivam J. Kaushik. Academic Press, UK. 905 pp.), which stipulates a vitamin D3 supplementation of 2500-3500 international units (IU)/62.5-87.5 μg/kg). Diets were fed for 90 days with test fish reaching a mean final weight of 73.0 g. Twenty fish were housed in each tank and each treatment consisted of five replicate tanks.

[5] = Study 2: Atlantic salmon 90-day feeding trial, viscerosomatic index, carcass yield and visceral fat; conditions: Atlantic salmon, 100, 200 or 400 μg/kg 25-OH-D3 in feed, 90 days, relative to control
Experimental: as §3, §4

[6] = rainbow trout, 80, 800 or 8000 μg/kg in standard trout feed

## C=C1CC[C@H](O)C/C1=C/C=C1\CCC[C@]2(C)[C@@H]([C@H](C)CCCC(C)(C)O)CC[C@@H]12 [25-OH-D3, 25-hydroxyvitamin D3]
[1]; rainbow trout, 80, 800 or 8000 μg/kg dietary 25-OH-D3 from Hy·D, D3-replete diets
  plasma levels of 1,25-OH-D3 (active D3 metabolite): increased plasma levels
[1]; [6]
  blood plasma 25-OH-D3 in response to increasing dietary 25-OH-D3: increase in a linear relationship
  muscle 25-OH-D3 in response to increasing dietary 25-OH-D3: increase in a linear relationship
[1]; rainbow trout, from changes in plasma and muscle vitamin D3 metabolites
  bioavailability to fish: highly bioavailable
[2]; rainbow trout fry, vs 1.19 for comparison diet, p=0.0002
  feed efficiency (FE): 1.29
[2]; rainbow trout, 47.38 vs. 51.15, p=0.006
  whole body protein: 51.15
[3]; apparent from 31 days onwards
  specific growth rate (SGR) relative to the control: rapidly improved; also recorded: increased growth rate relative to the control
[3]; from 15 days onwards
  feed conversion ratio (FCR) relative to the control: rapidly improved
[4]
  feed conversion (FCR): improved
  final body weight: improved; also recorded: increased growth
  protein efficiency ratio (PER): improved
[5]
  carcass yield (percentage carcass): improved carcass yields; also recorded: increased
  percentage fat in the viscera: reduced percentage fat being deposited in the viscera
  viscerosomatic index (VSI): reduced VSI; also recorded: decreased VSI
